Reference: US6914045B2, “Glycopeptide antibiotics” (Wyeth Holdings Corporation, priority 2001, dated 2005)
Values after ≈ are worked out from the molar mass of the structure shown.

Tests used:
Test in all cases: in vitro antibacterial evaluation, MIC by broth dilution
Type in all cases: cell-based
Enterococcus sp. = details: broth dilution, 18 hours at 35° C.; for MIC Enterococcus faecalis (ATCC 29212): strain ATCC 29212; for MIC Enterococcus faecalis (GC 2242): strain GC 2242; for MIC Enterococcus faecium (GC 2243): strain GC 2243; for MIC Enterococcus faecalis (GC 2691): strain GC 2691; for MIC Enterococcus faecalis (GC 3059): strain GC 3059; for MIC Enterococcus faecalis (GC 4552): strain GC 4552; for MIC Enterococcus faecalis (GC 4553): strain GC 4553; for MIC Enterococcus faecalis (GC 4554): strain GC 4554; for MIC Enterococcus faecium (GC 4556): strain GC 4556; for MIC Enterococcus faecium (GC 4557): strain GC 4557; for MIC Enterococcus avium (GC 4558): strain GC 4558; for MIC Enterococcus faecalis (GC 6189): strain GC 6189
Method in brief: (§1)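 Following National Committee for Clinical Laboratory Standards recommendations (M7-A2), susceptibility was measured by dilution in Muller-Hinton II […]. Bacteria were seeded at 5×10^5 CFU/mL against compound concentrations from 64 down to 0.06 μg/mL.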

Escherichia coli = test system: Escherichia coli
Method in brief: as §1

Staphylococcus sp. = details: broth dilution, 18 hours at 35° C.; for MIC Staphylococcus aureus (GC 1131): strain GC 1131
Method in brief: as §1

Streptococcus sp. = details: broth dilution, 18 hours at 35° C.; for MIC Streptococcus pneumoniae (ATCC 6301): strain ATCC 6301; for MIC Streptococcus pneumoniae (GC 1894): strain GC 1894; for MIC Streptococcus pyogenes (GC 4563): strain GC 4563; for MIC Streptococcus agalactiae (GC 4564): strain GC 4564; for MIC Streptococcus pneumoniae (GC 4565): strain GC 4565
Method in brief: as §1

`CC(c1ccccc1)C1NC(=O)CNC(=O)C(CO)NC(=O)C(C(O)C2CNC(=N)N2C2OC(CO)C(O)C(O)C2O)NC(=O)C(C(O)C2CNC(=N)N2)NC(=O)C(Cc2ccc(OC3OC(CO)C(OC4OC5COC(c6cccc(OCc7ccc([N+](=O)[O-])cc7)c6)OC5C(O)C4O)C(O)C3O)cc2)NC1=O` (centres unmarked) [Example 182] was tested, and the “MIC Enterococcus faecalis (ATCC 29212)” value (Enterococcus sp.; inoculum 5×10^5 CFU/mL) was over 64 µg/mL, the “MIC Enterococcus faecalis (GC 2242)” value (Enterococcus sp.; inoculum 5×10^5 CFU/mL) was over 64 µg/mL and the “MIC Enterococcus faecium (GC 2243)” value (Enterococcus sp.; inoculum 5×10^5 CFU/mL) was over 64 µg/mL. For the same compound, the “MIC Enterococcus faecalis (GC 2691)” value (Enterococcus sp.; inoculum 5×10^5 CFU/mL) was over 64 µg/mL, the “MIC Enterococcus faecalis (GC 3059)” value (Enterococcus sp.; inoculum 5×10^5 CFU/mL) was over 64 µg/mL and the “MIC Enterococcus faecalis (GC 4552)” value (Enterococcus sp.; inoculum 5×10^5 CFU/mL) was over 64 µg/mL. For the same compound, the “MIC Enterococcus faecalis (GC 4553)” value (Enterococcus sp.; inoculum 5×10^5 CFU/mL) was over 64 µg/mL, the “MIC Enterococcus faecalis (GC 4554)” value (Enterococcus sp.; inoculum 5×10^5 CFU/mL) was over 64 µg/mL and the “MIC Enterococcus faecium (GC 4556)” value (Enterococcus sp.; inoculum 5×10^5 CFU/mL) was over 64 µg/mL. The “MIC Enterococcus faecium (GC 4557)” value (Enterococcus sp.; inoculum 5×10^5 CFU/mL) was over 64 µg/mL, the “MIC Enterococcus avium (GC 4558)” value (Enterococcus sp.; inoculum 5×10^5 CFU/mL) was over 64 µg/mL and the “MIC Enterococcus faecalis (GC 6189)” value (Enterococcus sp.; inoculum 5×10^5 CFU/mL) was over 64 µg/mL. For the same compound, the “MIC Enterococcus faecalis (ATCC 29212)” value (Enterococcus sp.) was over 64 µg/mL, the “MIC Enterococcus faecalis (GC 2242)” value (Enterococcus sp.) was over 64 µg/mL and the “MIC Enterococcus faecium (GC 2243)” value (Enterococcus sp.) was over 64 µg/mL. The “MIC Enterococcus faecalis (GC 2691)” value (Enterococcus sp.) was over 64 µg/mL, the “MIC Enterococcus faecalis (GC 3059)” value (Enterococcus sp.) was over 64 µg/mL and the “MIC Enterococcus faecalis (GC 4552)” value (Enterococcus sp.) was over 64 µg/mL. For the same compound, the “MIC Enterococcus faecalis (GC 4553)” value (Enterococcus sp.) was over 64 µg/mL, the “MIC Enterococcus faecalis (GC 4554)” value (Enterococcus sp.) was over 64 µg/mL and the “MIC Enterococcus faecium (GC 4556)” value (Enterococcus sp.) was over 64 µg/mL. For the same compound, the “MIC Enterococcus faecium (GC 4557)” value (Enterococcus sp.) was over 64 µg/mL, the “MIC Enterococcus avium (GC 4558)” value (Enterococcus sp.) was over 64 µg/mL and the “MIC Enterococcus faecalis (GC 6189)” value (Enterococcus sp.) was over 64 µg/mL. The “MIC Escherichia coli (ATCC 25922)” value (Escherichia coli; strain ATCC 25922, 18 hours at 35° C.) was over 64 µg/mL, the “MIC Escherichia coli (GC 4559)” value (Escherichia coli; strain GC 4559, 18 hours at 35° C.) was over 64 µg/mL and the “MIC Escherichia coli (GC 4560)” value (Escherichia coli; strain GC 4560, 18 hours at 35° C.) was over 64 µg/mL. For the same compound, the “MIC Staphylococcus aureus (GC 1131)” value (Staphylococcus sp.; inoculum 5×10^5 CFU/mL) was over 64 µg/mL, the “MIC Staphylococcus aureus (ATCC 29213)” value (Staphylococcus sp.; strain ATCC 29213) was over 64 µg/mL and the “MIC Staphylococcus aureus (GC 1131)” value (Staphylococcus sp.) was over 64 µg/mL. The “MIC Staphylococcus aureus (GC 3051)” value (Staphylococcus sp.; strain GC 3051) was over 64 µg/mL, the “MIC Staphylococcus aureus (GC 3053)” value (Staphylococcus sp.; strain GC 3053) was over 64 µg/mL and the “MIC Staphylococcus aureus (GC 4541)” value (Staphylococcus sp.; strain GC 4541) was over 64 µg/mL. The “MIC Staphylococcus aureus (GC 4542)” value (Staphylococcus sp.; strain GC 4542) was over 64 µg/mL, the “MIC Staphylococcus aureus (GC 4544)” value (Staphylococcus sp.; strain GC 4544) was over 64 µg/mL and the “MIC Staphylococcus aureus (GC 4545)” value (Staphylococcus sp.; strain GC 4545) was over 64 µg/mL. The “MIC Staphylococcus aureus-SMITH (GC 4543)” value (Staphylococcus sp.; strain GC 4543) was over 64 µg/mL, the “MIC Staphylococcus haemolyticus (GC 4546)” value (Staphylococcus sp.; strain GC 4546) was over 64 µg/mL and the “MIC Coagulase Negative Staphylococcus (GC 4547)” value (Staphylococcus sp.; strain GC 4547) was over 64 µg/mL. The “MIC Coagulase Negative Staphylococcus (GC 4548)” value (Staphylococcus sp.; strain GC 4548) was over 64 µg/mL, the “MIC Coagulase Negative Staphylococcus (GC 4549)” value (Staphylococcus sp.; strain GC 4549) was over 64 µg/mL and the “MIC Coagulase Negative Staphylococcus (GC 4551)” value (Staphylococcus sp.; strain GC 4551) was over 64 µg/mL. For the same compound, the “MIC Coagulase Negative Staphylococcus (GC 6257)” value (Staphylococcus sp.; strain GC 6257) was over 64 µg/mL, the “MIC Streptococcus pneumoniae (ATCC 6301)” value (Streptococcus sp.; inoculum 5×10^5 CFU/mL) was 4 µg/mL (≈ 2.61 µM) and the “MIC Streptococcus pneumoniae (GC 1894)” value (Streptococcus sp.; inoculum 5×10^5 CFU/mL) was 8 µg/mL (≈ 5.21 µM). The “MIC Streptococcus pyogenes (GC 4563)” value (Streptococcus sp.; inoculum 5×10^5 CFU/mL) was 64 µg/mL (≈ 41.7 µM), the “MIC Streptococcus agalactiae (GC 4564)” value (Streptococcus sp.; inoculum 5×10^5 CFU/mL) was 32 µg/mL (≈ 20.9 µM) and the “MIC Streptococcus pneumoniae (GC 4565)” value (Streptococcus sp.; inoculum 5×10^5 CFU/mL) was 8 µg/mL (≈ 5.21 µM). The “MIC Streptococcus pneumoniae (ATCC 6301)” value (Streptococcus sp.) was 4 µg/mL (≈ 2.61 µM), the “MIC Streptococcus pneumoniae (GC 1894)” value (Streptococcus sp.) was 8 µg/mL (≈ 5.21 µM) and the “MIC Streptococcus pyogenes (GC 4563)” value (Streptococcus sp.) was 64 µg/mL (≈ 41.7 µM). For the same compound, the “MIC Streptococcus agalactiae (GC 4564)” value (Streptococcus sp.) was 32 µg/mL (≈ 20.9 µM) and the “MIC Streptococcus pneumoniae (GC 4565)” value (Streptococcus sp.) was 8 µg/mL (≈ 5.21 µM).
